Entries after “also recorded” stand apart in the source; their conditions may differ.
Legend:
[1] = Clinical trials of daily oral CDB-4124 (Proellex) capsules: liver toxicity, liver enzymes; format: in vivo, human
Procedure: The maximum concentrations of CDB-4124 and its mono-demethylated metabolite (CDB-4453) for the 12.5 mg dose were 25% of the 50 mg dose. All liver toxicities resolved in those women that returned for safety follow-ups, including those subjects that developed liver-associated serious adverse effects (SAEs).
To date, over 600 patients, including women with confirmed cases of endometriosis or uterine fibroids, have participated in double blind and open label clinical trials in which patients were administered daily oral capsules containing doses of 12.5 mg, 25 mg or 50 mg CDB-4124 (Proellex) for over one month. Of these patients, about 500 received Proellex and about 130 received a placebo. Of the patients receiving Proellex, about 190 received a dose of 50 mg CDB-4124 per day, about 260 received a dose of 25 mg CDB-4124 per day and about 55 received a dose of 12.5 mg per day.
Liver enzymes were frequently monitored in participating subjects. The liver enzyme level at which the clinical trials would be discontinued was set at an increase in liver aminotransferases greater than, or equal to three times the Upper Limit of Normal (≥3×ULN).
Of the nine subjects with a confirmed increase in liver enzymes ≥3×ULN, seven were severe enough elevations to be reported to the FDA as SAEs. One of these seven subjects had been receiving a dose of 25 mg CDB-4124 per day; the remaining six subjects had been receiving a dose of 50 mg CDB-4124 per day. Liver enzymes ≥3×ULN persisted in five of the nine subjects with a confirmed increase in liver enzymes ≥3×ULN. These five subjects had previously been dosed with the 50 mg dose. One of these subjects is receiving oral medication for treatment of their liver condition. Clinical trials involving CDB-4124 at all doses were voluntarily suspended as a result of these SAEs and were subsequently placed on clinical hold by the United States Food and Drug Administration for safety reasons.

[2] = Pharmacokinetic studies on participating clinical trial subjects, oral CDB-4124; format: in vivo, human; settings: for maximum concentration for the 12.5 mg dose as percentage of the 50 mg dose: oral CDB-4124, parent and mono-demethylated metabolite
Procedure: (§1) Pharmacokinetic studies performed on participating subjects detected a high Cmax and a Tmax at 1-2 hours following administration. […] Metabolism of CDB-4124 by the liver provides the opportunity for liver damage and greatly reduces the concentration of the antiprogestin before it reaches the systemic circulation. Thus, alternative routes of administration of antiprogestins that avoid first pass metabolism such as, without limitation, intravenous, intramuscular, and sublingual, should allow antiprogestins to be absorbed directly into the systemic circulation and thereby provide a method for treating progestone-dependent conditions while avoiding liver toxicity. Administration routes which avoid first pass metabolism may also require less drug per dose to achieve the same therapeutic benefit relative to oral administration.

[3] = tested on: primary cultures of human and animal hepatocytes; test: Metabolism in primary cultures of hepatocytes; format: in vitro ADME; settings: primary hepatocyte cultures
Procedure: as §1

[4] = Oral versus vaginal pharmacokinetics in beagles; format: in vivo; settings: 25 mg; for metabolism after peak plasma concentration: oral, micronized powder; for metabolism / peak plasma concentration (Cmax): vaginal suppository
Procedure: Beagles were administered 25 mg of CDB-4124 or CDB-4453 (the monodemethylated metabolite of CDB-4124) formulated as either a micronized powder or a vaginal suppository. […] Moreover, systemic exposure of the drug is much lower when administered locally (compare AUC for CDB-4124 and CDB-4453 when administered vaginally vs. orally).

[5] = Cmax after vaginal administration extrapolated from beagles to humans; format: in vivo; settings: for predicted Cmax for vaginal administration as percentage of the same dose administered orally: humans
Procedure: The maximum circulating concentrations (Cmax) of CDB-4124 obtained following vaginal administration to beagles were extrapolated to humans for the 12.5 mg, 25 mg and 50 mg doses actually administered during the Phase III clinical studies.

[6] = tested on: progesterone-induced endometrial proliferation; test: Anti-Clauberg study, subcutaneous versus oral; format: in vivo, rabbits
From the text: To determine whether the low circulating levels of CDB-4124 when administered locally could have any impact predictive of efficacy, an anti-Clauberg study was run in which immature estradiol-primed rabbits were coadministered progesterone and various doses of CDB-4124 by either subcutaneous or oral administration. At least 3 different highly trained individuals evaluated the rabbit uterus for glandular growth, for complexity and overall progesterone-induced “development”. The inhibition (by percentage) of progesterone-induced endometrial proliferation at each dose was assayed. […] However, maximal inhibition required a 8-fold increase in dosage when administered orally (i.e. 8 mg/kg). Importantly 8 mg/kg corresponds closely to the 50 mg/day dose of CDB-4124 administered to the female subjects described in Example 4.

[7] = tested on: progesterone-induced endometrial proliferation; test: Anti-Clauberg study, vaginal versus oral (McPhail index); format: in vivo, rabbits
Procedure: Another anti-Clauberg study was run in which immature estradiol-primed rabbits were administered progesterone alone (vehicle control) or were co-administered progesterone and three doses of CDB-4124 by either vaginal or oral administration. The inhibition of progesterone-induced endometrial proliferation at each dose was assayed. FIG. 3 illustrates the decrease in the McPhail index following increasing doses of CDB-4124 administered by either route. Maximal inhibition (i.e. a decrease in the McPhail index to 1.5) occurred at 0.2 mg/kg CDB-4124 when administered vaginally, compared to 0.8 mg/kg when administered orally.

[8] = target: T1, glucocorticoid receptor (Homo sapiens, UniProt P04150); settings: cited from earlier work
T1 sequence (P04150 1-777): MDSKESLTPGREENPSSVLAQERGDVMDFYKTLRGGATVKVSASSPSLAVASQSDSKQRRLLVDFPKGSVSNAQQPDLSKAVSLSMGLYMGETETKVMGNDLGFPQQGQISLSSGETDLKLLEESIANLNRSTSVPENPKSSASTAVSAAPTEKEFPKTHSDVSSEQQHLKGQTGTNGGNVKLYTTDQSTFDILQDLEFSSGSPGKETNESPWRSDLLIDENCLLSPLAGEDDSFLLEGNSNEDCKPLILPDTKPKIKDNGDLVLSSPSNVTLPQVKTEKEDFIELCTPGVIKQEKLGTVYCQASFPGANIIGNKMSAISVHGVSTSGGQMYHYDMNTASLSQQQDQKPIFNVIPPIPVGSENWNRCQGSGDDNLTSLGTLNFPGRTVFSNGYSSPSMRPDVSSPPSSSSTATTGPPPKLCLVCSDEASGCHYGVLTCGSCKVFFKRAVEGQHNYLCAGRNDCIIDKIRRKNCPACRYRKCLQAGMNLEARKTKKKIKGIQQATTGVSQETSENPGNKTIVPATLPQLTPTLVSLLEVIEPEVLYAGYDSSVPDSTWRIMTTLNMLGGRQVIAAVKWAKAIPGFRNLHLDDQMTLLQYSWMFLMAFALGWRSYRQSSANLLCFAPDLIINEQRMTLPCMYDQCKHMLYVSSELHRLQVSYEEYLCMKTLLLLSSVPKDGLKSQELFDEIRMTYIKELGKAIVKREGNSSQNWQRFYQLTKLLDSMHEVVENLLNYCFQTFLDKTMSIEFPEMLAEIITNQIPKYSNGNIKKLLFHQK

COCC(=O)[C@@]1(OC(C)=O)CC[C@H]2[C@@H]3CCC4=CC(=O)CCC4=C3[C@@H](c3ccc(N(C)C)cc3)C[C@@]21C [CDB-4124, 21-methoxy-17α-acetoxy-11β-(4 N, N-dimethylaminophenyl)-19-norpregna-4,9-diene-3,20-dione]
subjects with liver enzyme elevation reported as SAE ([1]; 25 mg CDB-4124 per day): One | subjects with liver enzyme elevation reported as SAE ([1]; 50 mg CDB-4124 per day): six | subjects in whom liver enzymes ≥3×ULN persisted ([1]; 50 mg dose): five | subjects with elevations severe enough to be reported to the FDA as SAEs ([1]; all doses): seven | subjects with increase in liver enzymes ≥3×ULN confirmed by repeat test in 48 hours ([1]; all doses): nine | subjects with increase in liver enzymes ≥3×ULN ([1]; all doses, first test): thirteen | adverse liver toxicity signals ([1]; oral, 12.5 mg, versus placebo): no adverse liver toxicity signals different from placebo | frequency and intensity of liver toxicity effects relative to 50 mg/day ([1]; oral, 25 mg/day): significantly lower in frequency and intensity | women exhibiting severe liver toxicity ([1]; oral, 50 mg/day, Phase III clinical studies): 3-4% | liver toxicity on chronic daily administration ([1]; therapeutic oral dosages, patients): exhibit liver toxicity | monodemethylated metabolite detected (first pass metabolism) ([2]; after oral ingestion of CDB-4124): Large quantities; also recorded: Large amounts | Cmax ([2]; following oral administration): high | Tmax ([2]; human, in vivo, following oral administration): 1 to 2 h | maximum concentration for the 12.5 mg dose as percentage of the 50 mg dose [2]: 25% | production of the mono-demethylated metabolite [3]: rapidly produce the mono-demethylated metabolite | systemic exposure (AUC), local (vaginal) versus oral [4]: much lower | metabolism after peak plasma concentration [4]: rapidly metabolized | metabolism [4]: metabolized slowly | peak plasma concentration (Cmax) [4]: relatively low | predicted Cmax for vaginal administration as percentage of the same dose administered orally ([5]; 12.5 mg dose): approximately 6.5% | predicted Cmax for vaginal administration as percentage of the same dose administered orally ([5]; 50 mg dose): approximately 2% | Cmax with 12.5 mg vaginal dose as percentage of that with 50 mg oral dose ([5]; in vivo, po): 2% | dose at which maximal inhibition of progesterone-induced endometrial proliferation was observed ([6]; oral): 8 mg/kg | increase in dosage required for maximal inhibition, oral versus subcutaneous ([6]; rabbit, in vivo): 8 fold | dose at which maximal inhibition of progesterone-induced endometrial proliferation was observed ([6]; subcutaneous): less than 1 mg/kg | dose at which maximal inhibition occurred ([7]; oral): 0.8 mg/kg | dose at which maximal inhibition occurred ([7]; vaginal): 0.2 mg/kg | McPhail index at maximal inhibition ([7]; vaginal 0.2 mg/kg or oral 0.8 mg/kg): 1.5

CNc1ccc([C@H]2C[C@@]3(C)[C@@H](CC[C@]3(OC(C)=O)C(=O)COC)[C@@H]3CCC4=CC(=O)CCC4=C32)cc1 [CDB-4453, 21-methoxy-17α-acetoxy-11β-(4-N-methylaminophenyl)-19-norpregna-4,9-diene-3,20-dione]
maximum concentration for the 12.5 mg dose as percentage of the 50 mg dose [2]: 25% | systemic exposure (AUC), local (vaginal) versus oral [4]: much lower | metabolism after peak plasma concentration [4]: rapidly metabolized | metabolism [4]: metabolized slowly | peak plasma concentration (Cmax) [4]: relatively low | anti-glucocorticoid activity relative to parent CDB-4124 [8]: even lower anti-glucocorticoid activity than its parent

Reference: patent US20190127413A1, “Compositions and Methods for Non-Toxic Delivery of Antiprogestins” (Repros Therapeutics Inc., priority 2010, published 2019)
